The source of these data is patent publication US9873702B2, “Heterocyclic compounds as biogenic amine transport modulators” (Southern Research Institute, priority 2014, dated 2018).

Where two headings read alike, the source gives them in different places.

Data set [1] deals with dopamine transporter (DAT) (Rattus norvegicus, UniProt P23977). As to the kind of experiment: Dopamine reuptake ([^3H]dopamine uptake) inhibition in rat brain synaptosomes. To be noted: for Emax: read-out: DA Uptake Emax (% I ± SD).
The mark [2] stands for this setting: DA Uptake EC50 (nM ± SD), rat caudate synaptosomes, 5 nM [^3H]dopamine, 15 min, 25° C., three experiments pooled.

Chain of dopamine transporter (DAT) (P23977 whole entry): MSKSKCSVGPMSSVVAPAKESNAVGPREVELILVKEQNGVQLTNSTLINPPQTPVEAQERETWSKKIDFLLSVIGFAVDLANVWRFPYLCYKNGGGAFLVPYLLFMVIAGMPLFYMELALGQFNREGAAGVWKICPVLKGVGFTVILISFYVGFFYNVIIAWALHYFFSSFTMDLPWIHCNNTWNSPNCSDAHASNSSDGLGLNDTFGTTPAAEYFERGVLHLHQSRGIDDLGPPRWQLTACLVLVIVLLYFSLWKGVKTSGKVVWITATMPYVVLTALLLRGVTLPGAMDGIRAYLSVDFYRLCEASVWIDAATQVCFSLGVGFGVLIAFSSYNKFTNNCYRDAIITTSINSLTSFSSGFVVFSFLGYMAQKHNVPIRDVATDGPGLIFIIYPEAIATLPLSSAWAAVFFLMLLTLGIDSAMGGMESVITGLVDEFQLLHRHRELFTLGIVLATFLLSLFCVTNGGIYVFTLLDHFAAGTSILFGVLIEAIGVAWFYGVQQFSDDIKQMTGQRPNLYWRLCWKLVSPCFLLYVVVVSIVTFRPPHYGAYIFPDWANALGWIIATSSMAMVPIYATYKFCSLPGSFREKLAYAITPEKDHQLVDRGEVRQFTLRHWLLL

Broadly, the melting point is the temperature, or range, at which the solid turns liquid. One may read the IC50 as the concentration that gives 50% inhibition. A higher IC50 goes with a need for much substance. The term Emax denotes the maximal effect, on the per cent scale that the assay sets. Consider `Cc1nc2ccc(-c3nc(NCC(c4ccccc4)c4ccccc4)c4ccccc4n3)cn2c1C` [compound 91, 2-(2,3-Dimethylimidazo[1,2-A]Pyridin-6-yl)-N-(2,2-Diphenylethyl)Quinazolin-4-Amine], for which the melting point was 232 °C. The same compound came in with an IC50 in data set [1] (setting [2]) of 25 ± 3 nM. For the same compound, the Emax in data set [1] amounted to 72 ± 2%.
With `c1ccc(CC(CNc2nc(-c3cnc4nccn4c3)nc3ccccc23)c2ccccc2)cc1` (stereo not drawn) [compound 142, N-(2,3-Diphenylpropyl)-2-(Imidazo[1,2-A]Pyrimidin-6-yl)Quinazolin-4-Amine], the melting point was in the range of 189 to 191 °C. Moreover, the IC50 in data set [1] (setting [2]) was determined as 15 ± 3 nM. The Emax in data set [1] was 73 ± 2%.
`c1ccc(C(CNc2nc(-c3cnc(N4CCCC4)nc3)nc3ccccc23)c2ccccc2)cc1` [compound 37, N-(2,2-Diphenylethyl)-2-(2-(Pyrrolidin-1-yl)Pyrimidin-5-yl)Quinazolin-4-Amine] showed a melting point of 208 °C. The same compound had a half-inhibitory concentration (IC50) in data set [1] (setting [2]) of 121 ± 27 nM. For the same compound, in data set [1], the Emax turned out to be 66 ± 3%.
In turn, `CC(C)(C)OC(=O)N1CCCc2ccc(-c3nc(NCC(c4ccccc4)c4ccccc4)c4ccccc4n3)cc21` [compound 71, Tert-Butyl 7-(4-((2,2-Diphenylethyl)Amino)Quinazolin-2-yl)-3,4-Dihydroquinoline-1(2H)-Carboxylate] had a melting point of 89 °C. For the same compound, inhibition in data set [1] (setting [2]) was half-maximal at 890 nM (IC50). The Emax in data set [1] is < 100%.
In the same order, the values of `Nc1ncc(-c2nc(NCC(c3ccccc3)C3CCCCC3)c3ccccc3n2)cn1` (stereo not drawn) [compound 101, 2-(2-Aminopyrimidin-5-yl)-N-(2-Cyclohexyl-2-Phenylethyl)Quinazolin-4-Amine] are 105 °C, 79 ± 19 nM and 75 ± 3%.
In the same order, the values of `c1ccc(C(Nc2nc(-c3ccsc3)nc3ccccc23)c2ccccc2)cc1` [compound 11, N-Benzhydryl-2-(thiophen-3-yl)quinazolin-4-amine] are 152 to 155 °C, 770 nM and 100%.
In turn, `CC(C)(C)OC(=O)N[C@H](CNc1nc(-c2ccc3nccn3c2)nc2ccccc12)c1ccccc1` [compound 146, (S)-Tert-Butyl (2-((2-(Imidazo[1,2-A]Pyridin-6-yl)Quinazolin-4-yl)Amino)-1-Phenylethyl)Carbamate] had a melting point of 252 to 254 °C. Further, half-maximal inhibition in data set [1] (setting [2]) (IC50) required 414 ± 44 nM. Besides, the Emax in data set [1] came to 65 ± 1%.
In the case of `Cc1cc2nccn2cc1-c1nc(NC[C@H](c2ccccc2)n2cccc2)c2ccccc2n1` [compound 162, (S)-2-(7-Methylimidazo[1,2-A]Pyridin-6-yl)-N-(2-Phenyl-2-(1H-Pyrrol-1-yl)Ethyl)Quinazolin-4-Amine], the melting point was 196 to 198 °C. For the same compound, the IC50 in data set [1] (setting [2]) was found to be 2.2 ± 0.4 nM. The Emax in data set [1] came out at 62 ± 2%.
`c1ccc(C(CNc2nc(-c3ccc4[nH]ccc4c3)nc3ccccc23)c2cccnc2)cc1` (stereo not drawn) [compound 130, 2-(1H-Indol-5-yl)-N-(2-Phenyl-2-(Pyridin-3-yl)Ethyl)Quinazolin-4-Amine] showed a melting point of 109 to 111 °C. In data set [1] (setting [2]), this compound yielded an IC50 of 40 ± 5 nM. Further, the Emax in data set [1] is 74 ± 2%.
Compound `c1ccc(C(CNc2nc(-c3cccs3)nc3ccccc23)c2ccccc2)cc1` [compound 6, N-(2,2-Diphenylethyl)-2-(thiophen-2-yl)quinazolin-4-amine] showed a melting point of 148 to 152 °C. The compound also registered an IC50 in data set [1] (setting [2]) of 575 ± 51 nM. The Emax in data set [1] was 78 ± 1%.
In the same order, the values of `Cc1cc2nccn2cc1-c1nc(NCC(C)c2ccccc2)c2ccccc2n1` (stereo not drawn) [compound 184, 2-(7-Methylimidazo[1,2-A]Pyridin-6-yl)-N-(2-Phenylpropyl)Quinazolin-4-Amine] are 208 to 212 °C, 5.3 ± 2 nM and 81 ± 4%.
`Cl.c1ccc(C(CNc2nc(-c3ccc4nccn4c3)nc3cc(OCCCN4CCOCC4)ccc23)c2ccccc2)cc1` [compound 125, N-(2,2-Diphenylethyl)-2-(Imidazo[1,2-A]Pyridin-6-yl)-7-(3-Morpholinopropoxy)Quinazolin-4-Amine Hydrochloride] registered a melting point of 232 °C. Also, in data set [1], the midpoint of inhibition, the IC50, lay at 75 ± 25 nM and the Emax is 52 ± 3%.
For the compound `c1ccc(C(CNc2nc(N3CCc4c([nH]c5ccccc45)C3)nc3ccccc23)c2ccccc2)cc1` [compound 190, 2-(3,4-Dihydro-1H-Pyrido[3,4-B]Indol-2(9H)-yl)-N-(2,2-Diphenylethyl)Quinazolin-4-Amine], the melting point lay in the range of 185 to 187 °C. Besides, half-maximal inhibition in data set [1] (setting [2]) (IC50) was put at 6.9 ± 2 nM. For the same compound, the Emax in data set [1] is 80 ± 3%.
Consider `c1ccc(C(Nc2nc(-c3ccc4nccn4c3)nc3ccccc23)c2ccccc2)cc1` [compound 86, N-Benzhydryl-2-(Imidazo[1,2-A]Pyridin-6-yl)Quinazolin-4-Amine], for which the melting point is 258 °C. This compound also gave an IC50 in data set [1] (setting [2]) of 55 ± 6 nM. Also, the Emax in data set [1] stood at 70 ± 1%.
With `c1ccc(C(CNc2nc(-c3ccc4[nH]ncc4c3)nc3ccccc23)c2ccccc2)cc1` [compound 40, N-(2,2-Diphenylethyl)-2-(1H-Indazol-5-yl)Quinazolin-4-Amine], the melting point turned out to be 191 °C. In data set [1] (setting [2]), it took 124 ± 37 nM to reach half-maximal inhibition (IC50). Also, in data set [1], the Emax amounted to 74 ± 4%.
In turn, `c1ccc(C2CN(c3nc(-c4ccc5nccn5c4)nc4ccccc34)Cc3ccccc32)cc1` (stereo not drawn) [compound 135, 2-(Imidazo[1,2-A]Pyridin-6-yl)-4-(4-Phenyl-3,4-Dihydroisoquinolin-2(1H)-yl)Quinazoline] showed a melting point of 107 to 109 °C. In data set [1] (setting [2]), half-maximal inhibition (IC50) required 1490 ± 342 nM. In data set [1], the Emax was found to be 70 ± 4%.
In the case of `c1ccc2c(NCC(c3ccncc3)c3ccncc3)nc(N3CCc4[nH]ccc4C3)nc2c1` [compound 174, N-(2,2-Di(pyridin-4-yl)Ethyl)-2-(6,7-Dihydro-1H-Pyrrolo[3,2-C]Pyridin-5(4H)-yl)Quinazolin-4-Amine], the melting point was in the range of 224 to 226 °C. Besides, in data set [1] (setting [2]), the IC50 came out at 31 ± 10 nM. For the same compound, the Emax in data set [1] came out at 88 ± 4%.
In turn, `Cn1ncc2c(-c3nc(NCC(c4ccccc4)c4ccccc4)c4ccccc4n3)cccc21` [compound 65, N-(2,2-Diphenylethyl)-2-(1-Methyl-1H-Indazol-4-yl)Quinazolin-4-Amine] returned a melting point of 201 °C. Moreover, the IC50 in data set [1] (setting [2]) turned out to be 155 ± 92 nM. In addition, the Emax in data set [1] stood at 50 ± 6%.
In turn, `FC(F)(F)CNc1ncc(-c2nc(NCC(c3ccccc3)c3ccccc3)c3ccccc3n2)cn1` [compound 45, N-(2,2-Diphenylethyl)-2-(2-((2,2,2-Trifluoroethyl)Amino)Pyrimidin-5-yl)Quinazolin-4-Amine] yielded a melting point of 224 °C. Besides, half-maximal inhibition in data set [1] (setting [2]) (IC50) required 175 ± 68 nM. The Emax in data set [1] came to 58 ± 4%.
Take `CC(=O)N[C@H](CNc1nc(-c2ccc3nccn3c2)nc2ccccc12)c1ccccc1` [compound 149, (S)—N-(2-((2-(Imidazo[1,2-A]Pyridin-6-yl)Quinazolin-4-yl)Amino)-1-Phenylethyl)Acetamide]: the melting point was in the range of 99 to 101 °C. Besides, the IC50 in data set [1] (setting [2]) was 3720 ± 608 nM. Moreover, the Emax in data set [1] was 80 ± 4%.
The compound `c1ccc(C(CNc2nc(-c3cn[nH]c3)nc3ccccc23)c2ccccc2)cc1` [compound 75, N-(2,2-Diphenylethyl)-2-(1H-Pyrazol-4-yl)Quinazolin-4-Amine] showed a melting point of 233 °C. In data set [1] (setting [2]), this compound came in with an IC50 of 62 nM. The Emax in data set [1] came out at 100%.
In the same order, the values of `Cc1cc2nccn2cc1-c1nc(NCC(c2ccccc2)C(C)C)c2ccccc2n1` (stereo not drawn) [compound 169, N-(3-Methyl-2-Phenylbutyl)-2-(7-Methylimidazo[1,2-A]Pyridin-6-yl)Quinazolin-4-Amine] are 115 to 118 °C, 1.8 ± 0.4 nM and 64 ± 2%.
With `COc1ncc(-c2nc(NCC(c3ccccc3)c3ccccc3)c3ccccc3n2)cn1` [compound 29, N-(2,2-Diphenylethyl)-2-(2-Methoxypyrimidin-5-yl)Quinazolin-4-Amine], the melting point is 67 °C. This compound also registered an IC50 in data set [1] (setting [2]) of 36 ± 2 nM. Besides, in data set [1], the Emax was found to be 71 ± 1%.
For `COc1cc2nc(-c3ccsc3)nc(NCC(c3ccccc3)c3ccccc3)c2cc1OC` [compound 27, N-(2,2-Diphenylethyl)-6,7-Dimethoxy-2-(Thiophen-3-yl)Quinazolin-4-Amine], the melting point is 92 °C. Further, the IC50 in data set [1] (setting [2]) is 580 nM. The Emax in data set [1] is 100%.
Take `c1ccc(C(CNc2nc(-c3ccsc3)nc3ccccc23)c2ccccc2)cc1` [compound 10, N-(2,2-Diphenylethyl)-2-(thiophen-3-yl)quinazolin-4-amine]: the melting point is 152 to 155 °C. In addition, the IC50 in data set [1] (setting [2]) came out at 250 nM. For the same compound, the Emax in data set [1] was < 100%.
Regarding `c1ccc(C(CNc2nc(-c3ccc4nccnc4c3)nc3ccccc23)c2ccccc2)cc1` [compound 56, N-(2,2-Diphenylethyl)-2-(Quinoxalin-6-yl)Quinazolin-4-Amine], the melting point is 198 °C. In data set [1] (setting [2]), this compound showed an IC50 of 89 ± 13 nM. Moreover, the Emax in data set [1] was 70 ± 2%.
For `CCN(CC)C(=O)[C@]1(c2ccccc2)C[C@@H]1CNc1nc(-c2cn3ccnc3cc2C)nc2ccccc12` [compound 171, (1R,2S)—N,N-Diethyl-2-(((2-(7-Methylimidazo[1,2-A]pyridin-6-yl)Quinazolin-4-yl)Amino)Methyl)-1-Phenylcyclopropanecarboxamide], the melting point lay within 225 to 228 °C. In data set [1] (setting [2]), this compound registered an IC50 of 16 ± 7 nM. Further, the Emax in data set [1] was 73 ± 5%.
For `Cn1ccc2cc(-c3nc(NCC(c4ccccc4)c4ccccc4)c4ccccc4n3)ccc21` [compound 77, N-(2,2-Diphenylethyl)-2-(1-Methyl-1H-Indol-5-yl)Quinazolin-4-Amine], the melting point worked out at 222 °C. The compound also showed an IC50 in data set [1] (setting [2]) of 28 ± 5 nM. Moreover, the Emax in data set [1] was 69 ± 2%.
